The values below come from patent US10131634B2, “Method of treating pain” (Poseida Therapeutics, Inc., priority 2011, dated 2018).

For series [1], the system named is wild type rats. Description: Pain related behaviours after colon mustard (MO) infusion in wild type rats. The series is classed as in vivo, rat.
Series [2] concerns wild type rats. Description: Side effects in wild type rats dosed with compound. The series is classed as in vivo, rat. As to the method:
The quinoline structure Formula 1a is tested in cells and rats.

For the compound `CN1CC[C@]23c4c5ccc(O)c4O[C@H]2[C@@H](O)C=C[C@H]3[C@H]1C5` [morphine, reference compound], the “doses to inhibit pain related behaviors induced by intracolonic MO infusion (morphine equivalency)” value in the series on wild type rats [1] (pre-treatment, s.c., FIGS. 7-9) is given as “requires much higher doses”.
In the case of `Cc1cc(N2CCCCC2)nc2ccccc12` [Formula 1a], the inhibition of pain entry in the series on wild type rats [1] (colon mustard infusion, FIG. 1 (lower body licking)) is “dose responsive inhibition of pain”. In the series with wild type rats [2], the cardiotoxicity entry was “no cardiotoxicity” and the side effects result was “no obvious side effects”.
